According to patent US20120053534A1, “INTRAVAGINAL DEVICES COMPRISING ANTICHOLINERGIC AGENTS, AND METHODS OF MAKING THEREOF” (priority 2010, published 2012):

Assay: in vivo
Conditions: female, dog, plasma, po, 10 mg/day
Description: A study was conducted to determine the levels of oxybutynin and its active metabolite, N-desethyloxybutynin, present in plasma following oral and intravaginal administration of oxybutynin in dogs.
A 14 day study was conducted, where 8 young adult females were randomly assigned to 4 groups of 2 dogs each.

- Cmax: ~17.9 ng/mL
Structure (SMILES): CCN(CC)CC#CCOC(=O)C(O)(c1ccccc1)C1CCCCC1 (stereo not shown) [oxybutynin, 4-diethylaminobut-2-ynyl2-cyclohexyl-2-hydroxy-2-phenyl-ethanoate]
